According to ChEMBL document CHEMBL5154887, “Novel CRBN-Recruiting Proteolysis-Targeting Chimeras as Degraders of Stimulator of Interferon Genes with In Vivo Anti-Inflammatory Efficacy” (J Med Chem, 2022):
The source made the active and inactive calls. The calls are words filed in the database; no cut-off is given here.

Assays:
[1] = AUC (0 to t) in Sprague-Dawley rat at 2 mg/kg, iv measured upto 48 hrs by UPLC-triple quadrupole MS analysis; format: ADME, organism-based; set-up: time < 48 hrs, dose 2 mg/kg, route iv; details: in vivo
[2] = Renal toxicity in C57BL/6J mouse assessed as reduction in BUN level at 30 mg/kg, ip (Rvb= 8.9 mmol/L); format: organism-based; details: in vivo
[3] = molecular target: T1, Protein cereblon/Stimulator of interferon genes protein (Homo sapiens, UniProt Q96SW2+Q86WV6); test: Protac activity at CRBN/STING in human THP-1 cells assessed as increase in STING degradation incubated for 48 hrs by Western blot analysis; format: cell-based
Target sequence in this assay (Q96SW2 whole entry): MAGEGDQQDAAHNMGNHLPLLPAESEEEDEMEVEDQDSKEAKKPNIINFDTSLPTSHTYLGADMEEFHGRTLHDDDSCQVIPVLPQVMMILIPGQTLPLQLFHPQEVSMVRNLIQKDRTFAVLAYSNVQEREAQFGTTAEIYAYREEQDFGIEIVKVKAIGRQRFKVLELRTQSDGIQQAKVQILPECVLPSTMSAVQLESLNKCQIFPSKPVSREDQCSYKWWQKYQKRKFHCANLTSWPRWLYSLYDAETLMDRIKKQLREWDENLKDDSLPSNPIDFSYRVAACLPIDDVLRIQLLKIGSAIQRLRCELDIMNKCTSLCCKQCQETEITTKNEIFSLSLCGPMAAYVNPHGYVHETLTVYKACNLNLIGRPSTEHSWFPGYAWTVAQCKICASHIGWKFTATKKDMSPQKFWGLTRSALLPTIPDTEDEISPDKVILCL
Target sequence in this assay (Q86WV6 whole entry): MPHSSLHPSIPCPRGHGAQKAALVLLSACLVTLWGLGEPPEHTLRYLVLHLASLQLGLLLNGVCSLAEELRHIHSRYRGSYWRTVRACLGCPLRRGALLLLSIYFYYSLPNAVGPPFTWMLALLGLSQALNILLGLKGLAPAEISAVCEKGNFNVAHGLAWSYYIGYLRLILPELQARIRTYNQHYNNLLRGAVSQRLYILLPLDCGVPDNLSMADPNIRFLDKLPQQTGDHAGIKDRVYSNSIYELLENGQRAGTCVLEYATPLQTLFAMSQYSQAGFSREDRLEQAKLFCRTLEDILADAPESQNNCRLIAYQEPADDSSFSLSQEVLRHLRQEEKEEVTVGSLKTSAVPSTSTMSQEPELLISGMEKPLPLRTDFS

THP-1 [4] = test: Inhibition of cGAS-STING signalling pathway in human THP-1 cells assessed as downregulation of cGAMP-triggered IL-6 expression preincubated for 2 hrs followed by cGAMP stimulation and measured after 24 hrs by ELISA; format: cell-based; details: dose 2.5-20 µM, time 26.0 hrs, DDE = dose-dependent effect
THP-1 [5] = test: Inhibition of cGAS-STING signalling pathway in human THP-1 cells assessed as downregulation of cGAMP-triggered CXCL10 expression preincubated for 2 hrs followed by cGAMP stimulation and measured after 24 hrs by ELISA; format: cell-based; details: dose 2.5-20 µM, time 26.0 hrs, DDE = dose-dependent effect
[6] = molecular target: Stimulator of interferon genes protein (Homo sapiens) (UniProt Q86WV6); test: Inhibition of STING pathway in human THP-1 cells assessed as inhibition of cGAMP-triggered pTBK1 expression preincubated for 2 hrs followed by cGAMP stimulation and measured after 24 hrs by Western blot analysis; format: cell-based; details: dose 0-20 µM, time 26.0 hrs, DDE = dose-dependent effect
Chain of Stimulator of interferon genes protein (Homo sapiens) (Q86WV6 whole entry): as above

L02 = test: Cytotoxicity against human L02 cells assessed as reduction in cell viability at <10 uM by MTT assay; format: toxicity, cell-based; details: l02, 10 µM
[7] = Cytotoxicity against HEK293-A cells assessed as cell growth inhibition at 30 uM by MTT assay relative to control; format: toxicity, cell-based; details: human
Mus musculus [8] = test: Antiinflammatory activity against cisplatin-induced acute kidney injury in C57BL/6J mouse model assessed as reduction in kidney weight at 60 mg/kg, ip pretreated for 1 hr followed by cisplatin administration and measured after 72 hrs relative to control; format: functional; set-up: scale not given: the % may be the effect or the level left; details: time 73 hrs
[9] = Toxicity in C57BL/6J mouse assessed as body weight loss at 30 mg/kg, ip measured after 4 days relative to control; format: organism-based; details: in vivo, 96 h, time 4 day
[10] = Toxicity in C57BL/6J mouse assessed as body weight loss at 60 mg/kg, ip measured after 4 days relative to control; format: organism-based; details: in vivo, 96 h, time 4 day
[11] = Renal toxicity in C57BL/6J mouse assessed as reduction in BUN level at 60 mg/kg, ip (Rvb= 8.9 mmol/L); format: organism-based; details: in vivo
[12] = Renal toxicity in C57BL/6J mouse assessed as reduction in creatinine level at 60 mg/kg, ip (Rvb= 8.5 umol/L); format: organism-based; details: in vivo
Mus musculus [13] = test: In vivo inhibition of STING signalling pathway in ip dosed cisplatin-induced acute kidney injury in C57BL/6J mouse model assessed as reduction in CXCL10 expression in blood of mouse eyeballs pretreated for 1 hr followed by cisplatin administration and measured after 72 hrs by ELISA; format: functional, organism-based; details: time 73.0 hrs, DDE = dose-dependent effect
[14] = Toxicity in cisplatin-induced acute kidney injury in C57BL/6J mouse model assessed as marked inflammatory cell exudation in kidney at 30 to 60 mg/kg, ip pretreated for 1 hr followed by cisplatin administration and measured after 72 hrs by H and E staining based analysis; format: organism-based; details: in vivo, 73 h, dose 30-60 mg/kg
[15] = Toxicity in cisplatin-induced acute kidney injury in C57BL/6J mouse model assessed as tubular epithelial edema in kidney at 30 to 60 mg/kg, ip pretreated for 1 hr followed by cisplatin administration and measured after 72 hrs by H and E staining based analysis; format: organism-based; details: in vivo, 73 h, dose 30-60 mg/kg
[16] = Toxicity in cisplatin-induced acute kidney injury in C57BL/6J mouse model assessed as tubular obstruction in kidney at 30 to 60 mg/kg, ip pretreated for 1 hr followed by cisplatin administration and measured after 72 hrs by H and E staining based analysis; format: organism-based; details: in vivo, 73 h, dose 30-60 mg/kg
[17] = Toxicity in cisplatin-induced acute kidney injury in C57BL/6J mouse model assessed as morphological abnormalities in liver at 30 to 60 mg/kg, ip pretreated for 1 hr followed by cisplatin administration and measured after 72 hrs by H and E staining based analysis; format: organism-based; details: in vivo, 73 h, dose 30-60 mg/kg
[18] = Toxicity in cisplatin-induced acute kidney injury in C57BL/6J mouse model assessed as morphological abnormalities in heart at 30 to 60 mg/kg, ip pretreated for 1 hr followed by cisplatin administration and measured after 72 hrs by H and E staining based analysis; format: organism-based; details: in vivo, 73 h, dose 30-60 mg/kg
Mus musculus [19] = test: Renal protective activity against cisplatin-induced acute kidney injury in C57BL/6J mouse model assessed as clear cortical medullary demarcation at 60 mg/kg, ip by NMR based analysis; format: functional, organism-based
Mus musculus [20] = test: Renal protective activity against cisplatin-induced acute kidney injury in C57BL/6J mouse model assessed as reduction in kidney swelling at 60 mg/kg, ip by NMR based analysis; format: functional, organism-based
[21] = Half life in Sprague-Dawley rat at 2 mg/kg, iv measured upto 48 hrs by UPLC-triple quadrupole MS analysis; format: ADME, organism-based; details: in vivo
[22] = Clearance in Sprague-Dawley rat at 2 mg/kg, iv measured upto 48 hrs by UPLC-triple quadrupole MS analysis; format: ADME, organism-based; details: in vivo
[23] = Cmax in Sprague-Dawley rat at 2 mg/kg, iv measured upto 48 hrs by UPLC-triple quadrupole MS analysis; format: ADME, organism-based; set-up: dose 2 mg/kg, time < 48 hrs, route iv; details: in vivo
[24] = AUC (0 to t) in Sprague-Dawley rat at 20 mg/kg, po measured upto 48 hrs by UPLC-triple quadrupole MS analysis; format: ADME, organism-based; set-up: dose 20 mg/kg, time < 48 hrs, route po; details: in vivo
[25] = AUC (0 to infinity) in Sprague-Dawley rat at 20 mg/kg, po measured upto 48 hrs by UPLC-triple quadrupole MS analysis; format: ADME, organism-based; set-up: dose 20 mg/kg, time < 48 hrs, route po; details: in vivo
[26] = Half life in Sprague-Dawley rat at 20 mg/kg, po measured upto 48 hrs by UPLC-triple quadrupole MS analysis; format: ADME, organism-based; details: in vivo
[27] = Tmax in Sprague-Dawley rat at 20 mg/kg, po measured upto 48 hrs by UPLC-triple quadrupole MS analysis; format: ADME, organism-based; details: in vivo
[28] = Apparent volume of distribution in Sprague-Dawley rat at 20 mg/kg, po measured upto 48 hrs by UPLC-triple quadrupole MS analysis; format: ADME, organism-based; details: in vivo
[29] = Oral bioavailability in Sprague-Dawley rat at 20 mg/kg measured upto 48 hrs by UPLC-triple quadrupole MS analysis; format: ADME, organism-based; details: in vivo
[30] = molecular target: T1, Protein cereblon/Stimulator of interferon genes protein; test: Protac activity at CRBN/STING in human THP-1 cells assessed as increase in STING degradation at 10 uM measured after 4 to 48 hrs by Western blot analysis; format: cell-based; details: time 4-48 hrs, TDE = time-dependent effect
Target sequence in this assay (Q86WV6 whole entry, looked up): as the sequence (Q86WV6 whole entry) above
Target sequence in this assay (Q96SW2 whole entry, looked up): as the sequence (Q96SW2 whole entry) above

Mus musculus [31] = test: Antiinflammatory activity against cisplatin-induced acute kidney injury in C57BL/6J mouse model assessed as reduction in ischemic symptoms at 30 mg/kg, ip pretreated for 1 hr followed by cisplatin administration and measured after 72 hrs relative to control; format: functional, organism-based; details: time 73.0 hrs
[32] = Toxicity in C57BL/6J mouse model of cisplatin-induced acute kidney injury assessed as survival rate at 30 mg/kg, ip pretreated for 1 hr followed by cisplatin administration and measured after 72 hrs relative to control; format: organism-based; details: in vivo, 73 h

O=C(/C=C/C(=O)Nc1ccc(NC(=O)c2ccc([N+](=O)[O-])o2)cc1)NCCCCCCNc1cccc2c1C(=O)N(C1CCC(=O)NC1=O)C2=O (stereo not drawn)
AUC(0-t) at 48 h [1]: 257 ng·h/mL | Activity [2]: 27.2 mmol/L | DC50 [3]: 3.2 µM | Activity (THP-1 [4]): Dde | Activity (THP-1 [5]): Dde | inhibition [6]: Dde | Activity (L02): Non-Toxic | inhibition at 30 µM [7]: 11% | Activity (Mus musculus [8]): 26% | Activity [9]: 13% | Activity [10]: 9% | Activity [11]: 16.3 mmol/L | Activity [12]: 14.8 µmol/L | inhibition (Mus musculus [13]): Dde | Activity [14]: Non-Toxic | Activity [15]: Non-Toxic | Activity [16]: Non-Toxic | Activity [17]: Non-Toxic | Activity [18]: Non-Toxic | Activity (Mus musculus [19]): Active | Activity (Mus musculus [20]): Active | half-life [21]: 3.86 h | clearance [22]: 113 mL/min/kg | Cmax [23]: 318 ng/mL | AUC(0-t) at 48 h [24]: 52.2 ng·h/mL | AUC(0-inf) [25]: 55.7 ng·h/mL | half-life [26]: 7.36 h | Tmax [27]: 3.71 h | Vz [28]: 4480.43 L/kg | bioavailability [29]: 2.15% | Activity [30]: Tde | Activity (Mus musculus [31]): Active | Survival [32]: 89%
